Consider 19 compounds from patent US11814367B2, “Inhibitors of glycogen synthase 1 (GYS1) and methods of use thereof” (Maze Therapeutics, Inc., priority 2021, dated 2023).

pIC50: −log10 of the molar value. Some results are limits rather than exact numbers.

Experiment [1] concerns the target hGYS1 enzyme (recombinant hGYS1/GN1 protein) (Homo sapiens (Human), UniProt P13807). Kind of experiment: GYS1 coupled enzyme assay (PK/LDH). The experiment is classed as biochemical. To be noted: hGYS1/GN1 50 nM, UDP-Glucose 0.8 mM, G6P 1 mM; geometric mean of at least 2 runs.
Experiment [2] has as its target hGYS2 enzyme (recombinant hGYS2/GN1 protein) (Homo sapiens (Human), UniProt P54840). Kind of experiment: GYS2 coupled enzyme assay (PK/LDH). The class given is biochemical. To be noted: geometric mean of at least 2 assay runs on separate days, read-out: Avg_IC50. From the text:
The GYS2 coupled enzyme assay is a kinetic biochemical assay that indirectly quantifies the rate of glycogen synthesis by coupling the conversion of GYS2 substrate UDP-glucose into UDP with downstream enzymatic reactions. UDP is released from UDP-glucose as glucose monomers are linked into the growing glycogen strand by GYS2. The coupled assay then proceeds with pyruvate kinase utilizing UDP and phospho(enol)pyruvate (PEP) to form pyruvate. Lactate dehydrogenase then converts pyruvate and NADH into lactate and NAD+. Oxidation of NADH to NAD+ can be measured continuously with a plate reader by quantifying the decrease in NADH absorbance at 340 nm over time.
Compounds that inhibit the hGYS2 enzyme and, subsequently, the downstream conversion of NADH to NAD+, were tested using assay ready plates (black, clear bottom 384 well plates) in a final DMSO reaction volume of 2.5% DMSO. The Assay Buffer contained 50 mM Tris pH 7.5, 2 mM MgCl2, and 100 mM KCl. Fresh stocks of BSA at a final concentration of 0.02% and TCEP 1 mM were added before splitting buffer into hGYS2 buffer and substrate buffer. To the hGYS2 buffer, rabbit liver glycogen was added at a final concentration of 0.2% glycogen. Glucose-6-Phosphate was added at 2 mM, recombinant hGYS2/GN1 protein was added at 200 nM to the substrate buffer, phosphoenolpyruvate (PEP) was added at 2 mM, UDP-Glucose was added at 2 mM, NADH was added at 0.6 mM, and Pyruvate Kinase/Lactate Dehydrogenase was added at 20 units/mL. The reaction was initiated by mixing hGYS2 buffer and substrate buffer at a 1:1 ratio. Both buffers were plated using a liquid dispensing device with hGYS2 buffer plated first followed by the substrate buffer. Plates were spun briefly to eliminate air bubbles and are immediately read in continuous mode at an absorbance of 340 nm, for 10 time points in one-minute increments, for a total of 10 minutes. The slope from these 10 time points was normalized to the positive and negative control wells. The duplicate % inhibition values are then averaged and fit to a Hill equation for dose response according to the Levenberg-Marquardt algorithm with the Hill equation maximum set to 100 and the minimum set to 0.
The results are shown in Table 4 below, which reports the IC50 of each compound. Unless otherwise specified, IC50 values are reported as the geometric mean of at least 2 assay runs on separate days. As shown in the table below, the compounds of the present invention are not potent inhibitors of human GYS2. Unless otherwise specified, IC50 values are reported as the geometric mean of at least two assay runs on separate days. Each run represents the average of a technical replicate, where each compound was assayed twice in the same plate. A superscript “#” symbol in Table 4 indicates results from a single assay run.

Sequence of hGYS1 enzyme (recombinant hGYS1/GN1 protein) (P13807 whole entry): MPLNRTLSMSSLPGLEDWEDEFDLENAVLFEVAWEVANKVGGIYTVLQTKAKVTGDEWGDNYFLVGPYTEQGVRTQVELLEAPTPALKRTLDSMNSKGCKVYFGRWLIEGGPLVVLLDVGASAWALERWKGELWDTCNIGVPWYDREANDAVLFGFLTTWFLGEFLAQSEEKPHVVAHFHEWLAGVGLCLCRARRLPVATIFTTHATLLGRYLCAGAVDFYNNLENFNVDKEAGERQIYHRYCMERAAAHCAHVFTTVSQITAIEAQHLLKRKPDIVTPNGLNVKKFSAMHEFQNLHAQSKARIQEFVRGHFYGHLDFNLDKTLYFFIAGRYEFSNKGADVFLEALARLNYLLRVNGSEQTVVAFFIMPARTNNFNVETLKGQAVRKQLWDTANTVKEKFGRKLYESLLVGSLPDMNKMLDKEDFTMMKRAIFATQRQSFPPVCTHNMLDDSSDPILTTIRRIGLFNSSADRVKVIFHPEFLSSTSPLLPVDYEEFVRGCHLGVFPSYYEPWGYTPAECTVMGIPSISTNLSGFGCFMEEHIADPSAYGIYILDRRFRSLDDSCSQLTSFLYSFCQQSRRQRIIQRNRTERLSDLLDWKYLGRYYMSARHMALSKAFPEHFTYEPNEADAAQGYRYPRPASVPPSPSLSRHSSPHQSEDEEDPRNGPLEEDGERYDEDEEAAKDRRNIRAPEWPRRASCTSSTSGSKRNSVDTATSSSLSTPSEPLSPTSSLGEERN
Sequence of hGYS1 enzyme (recombinant hGYS1/GN1 protein) (P46976 whole entry partner): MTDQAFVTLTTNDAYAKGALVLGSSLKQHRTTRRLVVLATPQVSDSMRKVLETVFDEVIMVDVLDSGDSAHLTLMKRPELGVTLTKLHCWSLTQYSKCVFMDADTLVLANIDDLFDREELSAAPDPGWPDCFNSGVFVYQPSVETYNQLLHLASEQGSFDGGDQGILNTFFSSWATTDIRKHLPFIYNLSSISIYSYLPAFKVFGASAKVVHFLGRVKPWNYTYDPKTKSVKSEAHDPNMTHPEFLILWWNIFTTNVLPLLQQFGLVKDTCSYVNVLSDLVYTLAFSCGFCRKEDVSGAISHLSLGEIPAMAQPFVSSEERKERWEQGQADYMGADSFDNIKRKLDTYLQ
Sequence of hGYS2 enzyme (recombinant hGYS2/GN1 protein) (P54840 whole entry): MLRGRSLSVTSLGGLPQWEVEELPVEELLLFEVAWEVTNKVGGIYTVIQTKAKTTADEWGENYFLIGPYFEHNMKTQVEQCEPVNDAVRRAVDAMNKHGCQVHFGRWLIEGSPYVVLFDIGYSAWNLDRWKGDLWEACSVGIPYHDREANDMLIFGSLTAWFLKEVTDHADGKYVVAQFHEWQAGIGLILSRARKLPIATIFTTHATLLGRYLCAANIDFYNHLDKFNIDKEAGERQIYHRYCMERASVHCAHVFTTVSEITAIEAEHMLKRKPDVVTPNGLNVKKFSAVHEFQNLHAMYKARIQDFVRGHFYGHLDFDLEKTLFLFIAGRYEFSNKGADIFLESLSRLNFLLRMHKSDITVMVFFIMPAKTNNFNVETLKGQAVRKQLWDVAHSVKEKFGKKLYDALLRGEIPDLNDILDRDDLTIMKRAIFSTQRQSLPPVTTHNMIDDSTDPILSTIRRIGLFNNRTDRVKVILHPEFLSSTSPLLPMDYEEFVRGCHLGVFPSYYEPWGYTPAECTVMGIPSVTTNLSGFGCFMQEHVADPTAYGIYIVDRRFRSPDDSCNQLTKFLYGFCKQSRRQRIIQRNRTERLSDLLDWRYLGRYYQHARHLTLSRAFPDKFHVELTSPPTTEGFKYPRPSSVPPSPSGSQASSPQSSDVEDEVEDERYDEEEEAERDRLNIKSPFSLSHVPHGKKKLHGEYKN
Sequence of hGYS2 enzyme (recombinant hGYS2/GN1 protein) (P46976 whole entry partner): as the sequence (P46976 whole entry partner) above

Consider `Cc1cn(CC(=O)N2C[C@H](F)C[C@H]2C(=O)N[C@@H](c2ccccc2)c2ccc(C(C)C)c(F)n2)c(=O)n(C)c1=O` (relative stereo) [Compound 777, (2S,4R)-1-[2-(3,5-dimethyl-2,4-dioxo-1,2,3,4-tetrahydropyrimidin-1-yl)acetyl]-4-fluoro-N-[(R*)-[6-fluoro-5-(propan-2-yl)pyridin-2-yl](phenyl)methyl] pyrrolidine-2-carboxamide], for which the values for the pIC50 in experiment [1] and in experiment [2] were 7.38 and below 4.00, respectively.
In the case of `CC(=O)N1C[C@H](F)C[C@H]1C(=O)NC(c1ccccc1)c1ccc(C2CCC2)cn1` (single isomer, unassigned) [Compound 603, (2S,4R)-1-acetyl-N-[(S) or (R)-(5-cyclobutylpyridin-2-yl) (phenyl)methyl]-4-fluoropyrrolidine-2-carboxamide], the pIC50 is 6.22 in experiment [1] and below 4.00 in experiment [2].
As to `CC(C)c1ccc(C(NC(=O)[C@@H]2C[C@@H](F)CN2C(=O)Cc2cnn[nH]2)c2ccc(N)nc2)cc1F` (single isomer, unassigned) [Compound 620, (2S,4R)-N-[(R) or (S)-(6-aminopyridin-3-yl)[3-fluoro-4-(propan-2-yl)phenyl]methyl]-4-fluoro-1-[2-(1H-1,2,3-triazol-5-yl)acetyl]pyrrolidine-2-carboxamide], the values for the pIC50 in experiment [1] and in experiment [2] were 6.85 and below 4.00, respectively.
As to `CC(C)c1c(F)cc(C(NC(=O)[C@@H]2C[C@@H](F)CN2C(=O)Cc2ncco2)c2ccccc2)cc1F` (single isomer, unassigned) [Compound 661, (2S,4R)-N-[(S) or (R)-[3,5-difluoro-4-(propan-2-yl)phenyl](phenyl)methyl]-4-fluoro-1-[2-(1,3-oxazol-2-yl)acetyl]pyrrolidine-2-carboxamide], the values for the pIC50 in experiment [1] and in experiment [2] were 7.37 and below 4.00, respectively.
As for `O=C(NC(c1ccccc1)c1cc(F)c(C2CC2)c(F)c1)[C@@H]1C[C@@H](F)CN1C(=O)Cc1ncco1` (single isomer, unassigned) [Compound 662], the values for the pIC50 in experiment [1] and in experiment [2] were 6.64 and below 4.00, respectively.
Take `CC(C)c1ccc([C@@H](NC(=O)[C@@H]2C[C@@H](F)CN2C(=O)C(C)n2cnnn2)c2ccccc2)cc1F` (single isomer, unassigned) [Compound 767, (2S,4R)-4-fluoro-N-[(S)-[3-fluoro-4-(propan-2-yl)phenyl](phenyl)methyl]-1-[(2S) or (2R)-2-(1H-1,2,3,4-tetrazol-1-yl)propanoyl]pyrrolidine-2-carboxamide]: the pIC50 in experiment [1] is 6.97; in experiment [2], below 4.00.
On to `CC(C)c1ccc([C@@H](NC(=O)[C@@H]2C[C@@H](F)CN2C(=O)C(C)c2cnn[nH]2)c2ccccc2)cc1F` (single isomer, unassigned) [Compound 770, (2S,4R)-4-fluoro-N-[(S)-[3-fluoro-4-(propan-2-yl)phenyl](phenyl)methyl]-1-[(2S) or (2R)-2-(1H-1,2,3-triazol-5-yl)propanoyl]pyrrolidine-2-carboxamide], for which the pIC50 in experiment [1] was 7.21; in experiment [2], below 4.00.
On the same counts, the results for `CC(=O)N1CC[C@@]2(C1)C(=O)NCC2C(=O)N1C[C@H](F)C[C@H]1C(=O)N[C@@H](c1ccccc1)c1ccc(C(C)C)cc1` (stereo in doubt) [Compound 6, (2S,4R)-1-[(4S,5R)-7-acetyl-7-oxo-2,7-diazaspiro[4.4]nonane-4-carbonyl]-4-fluoro-N-[(S)-phenyl[4-(propan-2-yl)phenyl]methyl]pyrrolidine-2-carboxamide] are 6.68 and below 4.00.
With `CC(C)c1ccc([C@@H](NC(=O)[C@@H]2C[C@@H](F)CN2C(=O)Cc2ccnn2C)c2ccccc2)cc1` (stereo in doubt) [Compound 220, (2S,4RS)-4-fluoro-1-[2-(1-methyl-1H-pyrazol-5-yl)acetyl]-N-[(S)-phenyl[4-(propan-2-yl)phenyl]methyl]pyrrolidine-2-carboxamide], the pIC50 in experiment [1] is 7.42; in experiment [2] it was below 4.00.
As for `CC(C)c1ccc([C@@H](NC(=O)[C@@H]2C[C@@H](F)CN2C(=O)Cn2cccn2)c2ccccc2)cc1` (stereo in doubt) [Compound 221, (2S,4RS)-4-fluoro-N-[(S)-phenyl[4-(propan-2-yl)phenyl]methyl]-1-[2-(1H-pyrazol-1-yl)acetyl]pyrrolidine-2-carboxamide], the results for the pIC50 in experiment [1] and in experiment [2] were 7.37 and below 4.00, respectively.
For `CC(C)c1ccc([C@@H](NC(=O)[C@@H]2C[C@@H](F)CN2C(=O)Cc2ncccn2)c2ccccc2)cc1` [Compound 28, (2S,4R)-4-fluoro-N-[(S)-phenyl[4-(propan-2-yl)phenyl]methyl]-1-[2-(pyrimidin-2-yl)acetyl]pyrrolidine-2-carboxamide], in experiment [2], the pIC50 was below 4.00.
For `CC(C)c1ccc([C@@H](NC(=O)[C@@H]2C[C@@H](F)CN2C(=O)C(=O)Nc2cccnc2)c2ccccc2)cc1` [Compound 708, (2S,4R)-4-fluoro-N-[(S)-phenyl[4-(propan-2-yl)phenyl]methyl]-1-{[(pyridin-3-yl)carbamoyl]carbonyl} pyrrolidine-2-carboxamide], the pIC50 in experiment [1] is 5.60.
As for `COc1cc(C(=O)N2C[C@H](F)C[C@H]2C(=O)N[C@@H](c2ccccc2)c2ccc(C(C)C)cc2)nn1C` [Compound 709, (2S,4R)-4-fluoro-1-(5-methoxy-1-methyl-1H-pyrazole-3-carbonyl)-N-[(S)-phenyl[4-(propan-2-yl)phenyl]methyl]pyrrol-idine-2-carboxamide], the pIC50 in experiment [1] is 5.94.
For the compound `CC(C)c1ccc([C@@H](NC(=O)[C@@H]2C[C@@H](F)CN2C(=O)Cn2nncc2N2CCC2)c2ccccc2)nc1` [Compound 715, (2S,4R)-1-{2-[5-(azetidin-1-yl)-1H-1,2,3-triazol-1-yl]acetyl}-4-fluoro-N-[(S)-phenyl[5-(propan-2-yl)pyridin-2-yl]methyl]pyrrolidine-2-carboxamide], the pIC50 in experiment [1] is 6.98.
Take `Cc1nc(CC(=O)N2C[C@H](F)C[C@H]2C(=O)N[C@@H](c2ccccc2)c2ccc(C3CC3)c(F)n2)oc1C` [Compound 761, (2S,4R)-N-[(S)-(5-cyclopropyl-6-fluoropyridin-2-yl)(phenyl)methyl]-1-[2-(4,5-dimethyl-1,3-oxazol-2-yl)acetyl]-4-fluoropyrrolidine-2-carboxamide]: the pIC50 in experiment [1] is 7.26.
With `O=C(N[C@@H](c1ccccc1)c1ccc(C2CC2)c(F)n1)[C@@H]1C[C@@H](F)CN1C(=O)Cn1nncc1N1CCC1` [Compound 762, (2S,4R)-1-{2-[5-(azetidin-1-yl)-1H-1,2,3-triazol-1-yl]acetyl}-N-[(S)-(5-cyclopropyl-6-fluoropyridin-2-yl)(phenyl)methyl]-4-fluoropyrrolidine-2-carboxamide], the pIC50 in experiment [1] is 7.57.
As to `O=C(N[C@@H](c1ccccc1)c1ccc(C2CC2)c(F)n1)[C@@H]1[C@@H](O)[C@H](F)CN1C(=O)Cn1nnnc1C(F)F` [Compound 763, (2S,3R,4R)-N-[(S)-(5-cyclopropyl-6-fluoropyridin-2-yl)(phenyl)methyl]-1-{2-[5-(difluoromethyl)-1H-1,2,3,4-tetrazol-1-yl]acetyl}-4-fluoro-3-hydroxypyrrolidine-2-carboxamide], in experiment [1], the pIC50 was 6.33.
Same read-out and setting: as for `O=C(N[C@@H](c1ccccc1)c1ccc(C2CC2)c(F)n1)[C@@H]1[C@H](O)[C@@H](F)CN1C(=O)Cn1nnnc1C(F)F` [Compound 764, (2S,3S,4S)-N-[(S)-(5-cyclopropyl-6-fluoropyridin-2-yl)(phenyl)methyl]-1-{2-[5-(difluoromethyl)-1H-1,2,3,4-tetrazol-1-yl]acetyl}-4-fluoro-3-hydroxypyrrolidine-2-carboxamide], the figure is 6.81; as for `CC(C)c1ccc([C@@H](NC(=O)[C@@H]2C[C@@H](F)CN2C(=O)Cn2nncc2N2CCC2)c2ccccc2)nc1F` [Compound 808, (2S,4R)-1-{2-[5-(azetidin-1-yl)-1H-1,2,3-triazol-1-yl]acetyl}-4-fluoro-N-[(S)-[6-fluoro-5-(propan-2-yl)pyridin-2-yl](phenyl)methyl] pyrrolidine-2-carboxamide], 7.92.
